Four compounds from patent US20260158149A1, “GLYCOSYLATED PRODRUGS” (UNIVERSITEIT LEIDEN, priority 2021, published 2026) can be followed below.

Data set [1] relates to neutrophils migrated to the wounded area. Put plainly: Tail fin amputation assay: neutrophil migration to the wounded area. Format: in vivo, Zebrafish (Danio rerio). The note with it: for reduction in neutrophil migration in the presence of MZ31: GBA2 inhibitor MZ31; for neutrophil migration in Gba2-deficient larvae: gba2-/- mutant line; for inhibition of neutrophil migration in Gr deficient larvae: gr mutant line (gr-/-); for reduction in neutrophil migration in the presence of miglustat: non-specific GBA inhibitor miglustat. Here is the method: Zebrafish (Danio rerio) were maintained and handled according to the guidelines from the Zebrafish Model Organism Database (https://zfin.org/) and in compliance with the directives of the local animal welfare committee of Leiden University. To maintain circadian rhythmicity, adult fish were exposed to a 14 h light and 10 h dark cycle. Fertilization was performed by natural spawning at the beginning of the light period. Fertilized eggs were collected and raised at 28° C. in egg water (60 μg/ml Instant Ocean sea salts and 0.0025% methylene blue). The following zebrafish lines were used in this study: AB/TL wild type, the transgenic lines Tg(mpx:GFP^i114/mpeg1:mCherry^umsF001) (Bernut et al., (2014). Mycobacterium abscessus cording prevents phagocytosis and promotes abscess formation. Proc Natl Acad Sci USA 111, E943-952; Renshaw et al., (2006). A transgenic zebrafish model of neutrophilic inflammation. Blood 108, 3976-3978), and Tg(9xGCRE-HSV.UI123:EGFP)^ia20 (Benato et al., (2014). A living biosensor model to dynamically trace glucocorticoid transcriptional activity during development and adult life in zebrafish. Mol Cell Endocrinol 392, 60-72), and the mutant lines gba2^−/− (Lelieveld et al., (2019). Role of beta-glucosidase 2 in aberrant glycosphingolipid metabolism: model of glucocerebrosidase deficiency in zebrafish. J Lipid Res 60, 1851-1867) and gr^s357 (Ziv et al., (2013). An affective disorder in zebrafish with mutation of the glucocorticoid receptor. Mol Psychiatry 18, 681-691).
(§1) For the tail fin amputation experiments, 3 days post fertilization (dpf) larvae from the Tg(mpx:GFP^i114/mpeg1:mCherry^umsF001) line were anesthetized in 0.02% buffered aminobenzoic acid ethyl ester (tricaine) in egg water and placed on a 2% agarose-coated petri dish. The tails were partially amputated with a 1 mm sapphire blade (World Precision Instruments) under a Leica M165C stereomicroscope (Leica Microsystems, Wetzlar, Germany). Chemical treatment (or 0.1% DMSO as vehicle treatment) was started at 2 h before the amputation (pretreatment) and was continued for 4 h after the tail fin amputation (20 larvae per group, unless indicated otherwise), at which time point the larvae were fixed in 4% paraformaldehyde (PFA) overnight at 4° C. and stored at 4° C. until further examination. In some experiments, a 24 h treatment with miglustat, ME656 or MZ31 was started at 2 dpf, and these treatments were continued during the pretreatment and treatment with the other chemicals. For imaging of larvae from the Tg(mpx:GFP^i114/mpeg1:mCherry^umsF001) line, a LeicaMZ16FA fluorescence stereomicroscope with LAS 3.7 software was used. Neutrophils were detected by GFP fluorescence and macrophages by mCherry fluorescence. The neutrophil numbers were determined by blinded manual counting in a pre-determined area. When larvae from gba2^−/− or gr^s357mutant lines were used, neutrophil labeling was performed with the TSA fluorescein detection kit (PerkinElmer) for specific staining of Myeloperoxidase (Mpx)-positive cells, following the manufacturer's instructions.

The test system of data set [2] is il1b, il6, mmp9, mmp13, il8 mRNA. Put plainly: qPCR of pro-inflammatory genes after tail wounding. Format: in vivo, Zebrafish (Danio rerio).
Excerpt: as §1
For experiments in zebrafish, gene expression was measured using 3 dpf embryos. Groups of 15 larvae were collected in TRIzol reagent (Invitrogen) and mRNA was isolated using the miRNeasy mini kit (Qiagen), according to the manufacturer's instructions. For experiments in HeLa cells, samples were collected from a single well from 6 well plates (80% confluent) in TRIzol reagent and mRNA was isolated using the RNeasy mini kit. Zebrafish and cells samples were treated with DNAse utilizing the DNA-Free™ kit (Ambion). The cDNA synthesis was performed using iScript cDNA synthesis kit (Bio-Rad) using 1 μg of RNA per sample. For qPCR, 10 μM of forward and 10 μM of reverse primer, 12.5 μL of iQ SYBR Green Supermix (Bio-Rad), and 2 μL of cDNA were added to the qPCR reaction mixture. […] The qPCR reactions were performed on a MyiQ-single-color real-time PCR detection system (Bio-Rad) with initial denaturation for 3 min at 95° C. and 40 cycles of 15 s at 95.5° C., 15 s at 60° C., and 30 s at 72° C. Cycle threshold values (Ct values, i.e. the cycle numbers at which a threshold value of the fluorescence intensity was reached) were determined for each sample. The gene expression level for each sample was normalized using the expression of ppial (peptidylprolyl isomerase Ab (cyclophilin A)) for zebrafish samples, and 18S rRNA for human cells. The fold change per sample (compared to the respective control group) was calculated using the ΔΔCt method.
On the technique in general: Real-time PCR tracks product formation cycle by cycle.

The next data set concerns IL-6. The data set can be described thus: CAIA model: serum IL-6 by ELISA. Format: in vivo, mouse. The protocol:
All mice received 1.5 mg of a CAIA-cocktail (Chondrex) intravenously on day 1, followed by intraperitoneal (i.p.) injection of 50 μg LPS (Chondrex) on day 4. Mice were randomly divided into six groups. […] Scores were assigned blinded. […] The blood collection on day 14 was performed after 6 h fasting. On day 15, mice were sacrificed using carbon dioxide, and tissue samples were collected that were immediately frozen in liquid nitrogen. Applied humane endpoints were a total body weight loss of >20% in comparison to the day of LPS treatment or reaching an arthritis score of 45.
IL-6 concentrations were determined by ELISA in the serum collected at days 10 and 15, using the IL-6 mouse ELISA kit (Invitrogen), following the manufacturer's protocol. The insulin concentration was determined in serum collected at day 14, using the Ultra-sensitive mouse insulin ELISA kit (Crystal Chem), following the manufacturer's protocol. Corticosterone concentrations were determined in serum collected at day 15, using the Corticosterone HS (high sensitivity) enzyme immunoassay kit (Immunodiagnostic Systems), following the manufacturer's protocol. Expression levels of various GR target genes were determined by qPCR in the tissue samples (homogenized in TRIzol Reagent (ThermoFisher)) collected at day 15.
On the technique in general: In an ELISA, binding on a coated surface is turned into a signal by an enzyme label.

The subject of data set [3] is collagen antibody-induced arthritis (CAIA).
The nature of data set [4]: Whole-body cortisol measurement using ELISA. The note with it: for whole body cortisol level: 5 dpf larvae treated from 2 hpf, non-wounded; for whole body cortisol level under wounding conditions / whole body cortisol level under wounding conditions with MZ31: 5 dpf larvae, wounded at 2 dpf; for whole body cortisol level under wounding conditions with MZ31: GBA2 inhibitor MZ31.
Protocol: Zebrafish embryos at 2 hpf received a chemical treatment, as indicated, with daily refreshment of the solutions, until 96 hpf. Then, the treatments were stopped and embryos were incubated in egg water until 5 dpf to avoid cross-reactivity with the compounds of the cortisol antibody used in the ELISA. Then, the treatments were stopped and replaced with egg water. At 5 dpf, the larvae were collected in an Eppendorf tube and 100 μL of ice-cold phosphate-buffered saline (PBS) was added. The larvae were homogenized using a BulletBlender® for 3 min at 8,000 rpm. Ethyl acetate was added to the homogenate and the supernatant was gathered and vaporized. A volume of 150 μl of 0.2% Bovine serum albumin (Sigma Aldrich) dissolved in phosphate-buffered saline (PBS) was added to the samples and frozen. Whole-body cortisol of the zebrafish larvae was determined by ELISA (Demeditec Diagnostics GmbH, Kiel-Wellsee, Germany), following the manufacturer's instructions. In each experiment, three biological replicates were used for each treatment group, and the colorimetric assay was performed using technical duplicates.

The next data set in a line: Larval body length. Format: in vivo, Zebrafish (Danio rerio). The note with it: 5 dpf, treatment from 2 hpf. Here is the method: (§2) When the regeneration of the tail fins after wounding or the larval body length was used as a readout, chemical treatments of the embryos were started at 2 hours post fertilization (hpf) and continued until 5 dpf. During this period, solutions were refreshed daily. At 5 dpf, larvae were imaged using a LeicaMZ16FA fluorescence stereomicroscope supported by LAS 3.7 software, and the length of the larvae was measured using ImageJ software (15 larvae per treatment group). For the regeneration experiments, tail fins were amputated at 2 dpf and larvae were imaged at 5 dpf (15 larvae per treatment group). The newly grown tissue can be distinguished from the old tissue, enabling precise measurement of the size of the newly grown tissue using ImageJ software.

A short description of data set [5]: Whole-body glucose measurement in larvae. The note with it: 5 dpf larvae treated from 2 hpf, non-wounded.
Protocol: Zebrafish embryos at 2 hpf received a chemical treatment, as indicated, with daily refreshment of the solutions, until 5 dpf. At 5 dpf, the larvae were collected in an Eppendorf tube and 100 μL of ice-cold glucose buffer was added to each sample. The larvae were homogenized using a BulletBlender® for 3 min at 8,000 rpm. The homogenates were then centrifuged at 4° C. for 8 min at 11000 rpm and the supernatant was stored at −20° C. Whole-body glucose concentrations were determined using a Glucose Colorimetric Assay kit (Cayman Chemical, USA), according to the manufacturer's instructions. In each experiment, three biological replicates were used for each treatment group, and the colorimetric assay was performed using technical duplicates.
The test system of the next data set is regenerated tail fin. Put plainly: Regeneration of the tail fin after wounding. The class given is in vivo, Zebrafish (Danio rerio). The note with it: 5 dpf larvae, wounded at 2 dpf; for tissue regeneration with MZ31: GBA2 inhibitor MZ31. The protocol:
as §2

A further data set relates to Gr. The data set can be described thus: Transactivation activity of Gr in Tg(9xGCRE-HSV.UI23:EGFP) reporter line. The class given is in vivo, Zebrafish (Danio rerio). The note with it: 24 h treatment, 3 dpf larvae. The protocol:
The Tg(9xGCRE-HSV.UI23:EGFP)^ia20 zebrafish reporter line expresses enhanced green fluorescent protein (EGFP) under the control of a promoter containing an array of nine GREs. To study the effect of chemical treatments on the transactivation activity of the Gr, 15 zebrafish embryos per group (2 dpf) were treated with the indicated compounds for 24 hours. The transactivation activity of Gr induced by the treatments was assessed using a LeicaMZ16FA fluorescence stereomicroscope supported by LAS 3.7 software. The integrated intensity of the EGFP signal in the larvae was determined using ImageJ software.

[6] abbreviates: Pdn 12.5 or 25 mg/kg i.p. daily from day 7.

“Also recorded” adds a separate entry of the source.

Consider `C[C@]12C=CC(=O)C=C1CC[C@@H]1[C@@H]2[C@@H](O)C[C@@]2(C)[C@H]1CC[C@]2(O)C(=O)CO` [Pdn, prednisolone], for which the “migration of neutrophils towards the wounded area” value in data set [1] (wild type larvae, 4 h after tail wounding) is on record as “inhibited the neutrophil migration”. Moreover, in [2], the “expression of the pro-inflammatory genes il1b, il6 and il8” value was “these effects were similar to those observed upon Pdn and GPdn treatment”. For the same compound, the “serum IL-6 level compared to the vehicle group” value in the data set on IL-6 (day 10, all treatment groups) was “significant reduction of the IL-6 level”. Besides, the “serum IL-6 level” value in the data set with IL-6 (day 15, all groups except 12.5 mg/kg GbPdn) is reported as “undetectable”. In addition, in data set [3] (setting [6]), the “arthritis score at maximal reduction” value is reported as “approximately 0” and the “day of maximal reduction of arthritis score” value amounted to 11 days. The “arthritis scores after treatment initiation” value in [3] (all dose groups, daily i.p. from day 7) is on record as “decreased rapidly after treatment initiation”. In data set [4], the “whole body cortisol level” value is recorded as “significantly larger decrease”.

In the case of `C[C@@H]1C[C@H]2[C@@H]3CCC4=CC(=O)C=C[C@]4(C)[C@@]3(F)[C@@H](O)C[C@]2(C)[C@@]1(O)C(=O)CO` [Dex, dexamethasone], the larval length entry in “Larval body length” is listed as “decreased”. Moreover, the “whole body glucose level” value in data set [5] is given as “increased the glucose concentration”. In [4], the “whole body cortisol level” value is “decreased the cortisol level; also recorded: significantly larger decrease”.

On to `CC(C)=CCC[C@](C)(O[C@@H]1O[C@H](CO)[C@@H](O)[C@H](O)[C@H]1O)[C@H]1CC[C@]2(C)[C@@H]1[C@H](O)C[C@@H]1[C@@]3(C)CC[C@H](O[C@@H]4O[C@H](CO)[C@@H](O)[C@H](O)[C@H]4O)C(C)(C)[C@@H]3CC[C@]12C` [F2], for which, in data set [1], the “reduction in neutrophil migration in the presence of MZ31” value was “abolished”, the “neutrophil migration in Gba2-deficient larvae” value was “did not affect the neutrophil migration”, the “inhibition of neutrophil migration in Gr deficient larvae” value is “the inhibition of neutrophil migration was abolished” and the “reduction in neutrophil migration in the presence of miglustat” value is given as “abolished”. The “wounding-induced increase in expression of il1b, il6 and mmp9” value in data set [2] is “strongly suppressed”. Also, in the data set with regenerated tail fin, the “tissue regeneration (length of regenerated tail fin)” value is reported as “neither did they affect; also recorded: minor effect” and the “tissue regeneration with MZ31” value is on record as “GBA2-dependent”. The “transactivation activity of Gr (GFP signal in GRE:GFP reporter fish line)” value in the data set with Gr is given as “did not cause an increase in the fluorescence intensity”. Besides, the “whole body glucose level” value in data set [5] is listed as “did not show any effect on glucose”. For the same compound, in data set [4], the “whole body cortisol level” value is given as “neither did they affect the cortisol concentration”, the “whole body cortisol level under wounding conditions” value is on record as “minor effect” and the “whole body cortisol level under wounding conditions with MZ31” value was “GBA2-dependent”.

On to `CC(C)=CCC[C@](C)(O[C@@H]1O[C@H](CO[C@@H]2O[C@H](CO)[C@@H](O)[C@H](O)[C@H]2O)[C@@H](O)[C@H](O)[C@H]1O)[C@H]1CC[C@]2(C)[C@@H]1[C@H](O)C[C@@H]1[C@@]3(C)CC[C@H](O[C@@H]4O[C@H](CO)[C@@H](O)[C@H](O)[C@H]4O[C@@H]4O[C@H](CO)[C@@H](O)[C@H](O)[C@H]4O)C(C)(C)[C@@H]3CC[C@]12C` [Rb1], for which, in data set [1], the “reduction in neutrophil migration in the presence of MZ31” value is listed as “abolished”, the “neutrophil migration in Gba2-deficient larvae” value was “did not affect the neutrophil migration”, the “inhibition of neutrophil migration in Gr deficient larvae” value is listed as “the inhibition of neutrophil migration was abolished” and the “reduction in neutrophil migration in the presence of miglustat” value is listed as “abolished”. In data set [2], the “wounding-induced increase in expression of il1b, il6 and mmp9” value was “strongly suppressed”. In the data set on regenerated tail fin, the “tissue regeneration (length of regenerated tail fin)” value is on record as “neither did they affect; also recorded: minor effect” and the “tissue regeneration with MZ31” value is given as “GBA2-dependent”. Also, the “transactivation activity of Gr (GFP signal in GRE:GFP reporter fish line)” value with Gr is reported as “did not cause an increase in the fluorescence intensity”. In [5], the “whole body glucose level” value is reported as “did not show any effect on glucose”. For the same compound, in data set [4], the “whole body cortisol level” value is listed as “neither did they affect the cortisol concentration”, the “whole body cortisol level under wounding conditions” value was “minor effect” and the “whole body cortisol level under wounding conditions with MZ31” value is “GBA2-dependent”.
